Data from publication PMC3076090 (Pharmaceutical research, 2010).
Read-outs that look alike come from different tables or passages of the source.

What was measured:
[1] = system: blood-brain barrier; details: typical values; cited from earlier work
[2] = pKa determination at 37°C; assay type: physicochemical
[3] = system: blood-brain barrier; experiment: in situ rat brain perfusion, pH-dependent; details: for Kin: 30-s perfusion; for PcS (pH-CRE): new pH-CRE method; for PcS (CRE): traditional Crone-Renkin equation; for Fpf (cerebrovascular flow velocity refined from the compound's Kin-pH data): weighted nonlinear regression, Eq. 4; for log(Kin/S) (= log Pe): S = 100 cm^2·g^−1
[4] = measured octanol-water partition coefficients from multiple sources; cited from earlier work
[5] = intrinsic PAMPA permeability, 10% porcine brain extract lipids in alkane; cited from earlier work
[6] = system: blood-brain barrier; details: pH 7.4; S = 100 cm^2·g^−1; rat; cited from earlier work
[7] = system: blood-brain barrier; details: mouse in situ brain perfusion; cited from earlier work
[8] = system: blood-brain barrier; details: male, Sprague-Dawley, rat, 30 s

## OC[C@H]1O[C@@](CO)(O[C@H]2O[C@H](CO)[C@@H](O)[C@H](O)[C@H]2O)[C@@H](O)[C@@H]1O [sucrose]
[1]
  in vivo Pc (paracellular): about 0.15 10^−6 cm·s^−1

## CN(C)CCCN1c2ccccc2CCc2ccccc21 [Imipramine]
[2]
  pKa: 9.23 ± 0.06
[3]; dosing group B-5, pH 7.4, KRB
  Kin: 0.031 ± 0.021 mL/g/s
[3]; dosing group B-6, pH 8.5, 10 mM bicine in KRB
  Kin: 0.032 ± 0.002 mL/g/s
[3]; pH 7.4
  PcS (pH-CRE): 1416
  PcS (CRE): 1437
[3]; pH 8.5
  PcS (pH-CRE): 15,260
  PcS (CRE): 2150
[3]
  Fpf (cerebrovascular flow velocity refined from the compound's Kin-pH data): 0.032 mL.g^−1.s^−1

## inulin
[1]
  in vivo Pc (paracellular): ~0.04 10^−6 cm·s^−1

## COc1ccc2c(c1)c(CC(=O)O)c(C)n2C(=O)c1ccc(Cl)cc1 [Indomethacin]
[4]
  log POCT: 3.5
[5]
  log Po^PAMPA−BBB: −2.7
[3]; dosing group A-1, pH 5.5, 10 mM MES in KRB
  Kin: 0.032 ± 0.008 mL/g/s
[3]; dosing group A-2, pH 6.5, 10 mM MES in KRB
  Kin: 0.004 ± 0.001 mL/g/s
[3]; dosing group A-2, pH 6.5, 10 mM MES in KRB, listed as indomethacin
  Kin: 0.0042 ± 0.0008 mL/g/s
[3]; pH 5.5, this work
  log(Kin/S) (= log Pe): −3.50 ± 0.10 cm·s^−1
[3]; pH 5.5
  PcS (pH-CRE): 399
  PcS (CRE): 400
[3]; pH 6.5, this work (sertraline with 5 µM CsA)
  log(Kin/S) (= log Pe): −4.39 ± 0.08 cm·s^−1
[3]; pH 6.5
  PcS (pH-CRE): 42
  PcS (CRE): 42
[3]
  Fpf (cerebrovascular flow velocity refined from the compound's Kin-pH data): 0.081 mL.g^−1.s^−1

## CNCCCC12CCC(c3ccccc31)c1ccccc12 [Maprotiline]
[2]
  pKa: 10.01 ± 0.01
[4]
  log POCT: 5.1
[5]
  log Po^PAMPA−BBB: −0.6
[3]; dosing group B-7, pH 8.0, 10 mM bicine in KRB
  Kin: 0.052 ± 0.011 mL/g/s
[3]; dosing group B-8, pH 8.5, 10 mM bicine in KRB
  Kin: 0.036 ± 0.013 mL/g/s
[3]; pH 7.4, this work
  log(Kin/S) (= log Pe): −3.48 ± 0.11 cm·s^−1
[3]; pH 7.4
  PcS (pH-CRE): 591
  PcS (CRE): 580
[3]; pH 8.0, this work
  log(Kin/S) (= log Pe): −3.29 ± 0.09 cm·s^−1
[3]; pH 8.0
  PcS (pH-CRE): 2335
[3]; pH 8.5, this work
  log(Kin/S) (= log Pe): −3.44 ± 0.15 cm·s^−1
[3]; pH 8.5
  PcS (pH-CRE): 7234
  PcS (CRE): 691
[3]
  Fpf (cerebrovascular flow velocity refined from the compound's Kin-pH data): 0.047 ± 0.006 mL.g^−1.s^−1

## CN(C)CCC=C1c2ccccc2CCc2ccccc21 [Amitriptyline]
[2]
  pKa: 8.92 ± 0.1
[4]
  log POCT: 4.6
[5]
  log Po^PAMPA−BBB: −1.2
[6]
  log(Kin/S) (= log Pe): −3.27 ± 0.06 cm·s^−1
[7]
  Pgp effect ratio Kin^knockout/Kin^wildtype: 1.0
[3]; dosing group B-1, pH 8.0, 10 mM bicine in KRB
  Kin: 0.044 ± 0.013 mL/g/s
[3]; dosing group B-2, pH 8.5, 10 mM bicine in KRB
  Kin: 0.045 ± 0.014 mL/g/s
[3]; pH 7.4
  PcS (pH-CRE): 2997
[3]; pH 8.0, this work
  log(Kin/S) (= log Pe): −3.35 ± 0.13 cm·s^−1
[3]; pH 8.0
  PcS (pH-CRE): 10,974
  PcS (CRE): 549
[3]; pH 8.5, this work
  log(Kin/S) (= log Pe): −3.35 ± 0.13 cm·s^−1
[3]; pH 8.5
  PcS (pH-CRE): 28,173
[3]
  Fpf (cerebrovascular flow velocity refined from the compound's Kin-pH data): 0.051 ± 0.003 mL.g^−1.s^−1

## Cc1cc(=O)n(-c2ccccc2)n1C [Antipyrine]
[8]; in vivo, pH 5.5
  Kin (range over dosing groups): 0.0042 to 0.0082 mL/g/s
  PcS (CRE): 63
  PcS (pH-CRE): 77
[8]; in vivo, pH 6.5
  PcS (CRE): 54
  PcS (pH-CRE): 77
[8]; in vivo, pH 7.4
  Kin: 82 ± 23 10^−4 mL.g^−1.s^−1
  PcS (CRE): 92
  PcS (pH-CRE): 77
[8]; in vivo, pH 8
  PcS (CRE): 80
  PcS (pH-CRE): 77
[8]; in vivo, pH 8.5
  PcS (CRE): 70
  PcS (pH-CRE): 77
[8]; po
  log Po (intrinsic, neutral molecule, luminal permeability): −4.13 ± 0.02 cm.s^−1
[4]
  log POCT: 0.6
[5]
  log Po^PAMPA−BBB: −5.3

## CN[C@H]1CC[C@@H](c2ccc(Cl)c(Cl)c2)c2ccccc21 [Sertraline]
[4]
  log POCT: 4.9

## CNCC[C@@H](Oc1ccccc1C)c1ccccc1 [Atomoxetine]
[2]
  pKa: 9.5 ± 0.05
[4]
  log POCT: 3.3
[5]
  log Po^PAMPA−BBB: −1.8
[6]
  log(Kin/S) (= log Pe): −3.49 ± 0.12 cm·s^−1
[3]; dosing group B-3, pH 8.0, 10 mM bicine in KRB
  Kin: 0.026 ± 0.010 mL/g/s
[3]; dosing group B-4, pH 8.5, 10 mM bicine in KRB, no CsA
  Kin: 0.032 ± 0.015 mL/g/s
[3]; pH 7.4
  PcS (pH-CRE): 805
[3]; pH 8.0, this work
  log(Kin/S) (= log Pe): −3.59 ± 0.16 cm·s^−1
[3]; pH 8.0
  PcS (pH-CRE): 3134
  PcS (CRE): 549
[3]; pH 8.5, this work
  log(Kin/S) (= log Pe): −3.50 ± 0.20 cm·s^−1
[3]; pH 8.5
  PcS (pH-CRE): 9295
[3]
  Fpf (cerebrovascular flow velocity refined from the compound's Kin-pH data): 0.031 ± 0.002 mL.g^−1.s^−1
